Legend:
CCRF-CEM [1] = assay: Cytotoxic concentration against uninfected CEM cells; assay type: functional; settings: Homo sapiens
CCRF-CEM [2] = assay: Maximum protection of CEM cells by the compound against HIV-1 at a dose of 63 uM; assay type: functional, Homo sapiens
CCRF-CEM [3] = assay: Anti HIV-1 activity expressed as the concentration required to protect of HIV-1 infected CEM cells; assay type: functional, cell-based; settings: Homo sapiens
[4] = target: T1, Human immunodeficiency virus type 1 integrase (Human immunodeficiency virus 1, UniProt Q7ZJM1)
CCRF-CEM [5] = assay: Maximum protection of CEM cells by the compound against HIV-1; No protection; assay type: functional, cell-based; settings: Homo sapiens
[6] = target: T1, Human immunodeficiency virus type 1 integrase; remark: listed apart in the source
Description: Inhibition of HIV-1 integrase catalytic activity

[7] = Therapeutic index expressed as the ratio of CC50 and EC50; No therapeutic benifit reached; assay type: cell-based; settings: human, ccrf-cem
CCRF-CEM [8] = assay: Maximum protection of CEM cells by the compound against HIV-1 at a dose of 20 uM; assay type: functional, Homo sapiens
[9] = target: T1, Human immunodeficiency virus type 1 integrase; assay: Evaluated for inhibition of HIV-1 integrase catalytic activity in terms of inhibition of 3'-processing; assay type: functional
CCRF-CEM [10] = assay: Maximum protection of CEM cells by the compound against HIV-1 at a dose of 2 uM; assay type: functional, Homo sapiens
[11] = Therapeutic index expressed as the ratio of CC50 and EC50; assay type: cell-based; settings: human, CCRF-CEM cells; read-out: Therapeutic index
CCRF-CEM [12] = assay: Maximum protection of CEM cells by the compound against HIV-1 at a dose of 0.2 uM; assay type: functional, Homo sapiens
CCRF-CEM [13] = assay: Maximum protection of CEM cells by the compound against HIV-1 at a dose of 2 uM; No protection; assay type: functional, cell-based; settings: Homo sapiens

T1 sequence (Q7ZJM1 whole entry): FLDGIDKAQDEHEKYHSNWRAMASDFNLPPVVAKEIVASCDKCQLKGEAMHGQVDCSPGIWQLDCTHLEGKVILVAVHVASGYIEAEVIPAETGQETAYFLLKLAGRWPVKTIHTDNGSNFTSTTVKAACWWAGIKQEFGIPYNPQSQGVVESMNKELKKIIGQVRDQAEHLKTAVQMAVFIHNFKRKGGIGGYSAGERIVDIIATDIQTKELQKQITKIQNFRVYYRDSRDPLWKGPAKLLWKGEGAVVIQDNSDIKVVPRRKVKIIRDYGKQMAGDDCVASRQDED

Row | SMILES | EC50 (CCRF-CEM [3]) [µM] | IC50 [4] [µM] | IC50 [6] [µM] | IC50 [9] [µM] | CC50 (CCRF-CEM [1]) [µM] | Max protection (CCRF-CEM [2]) [%] | Max protection (CCRF-CEM [5]) | Therapeutic index [7] | Max protection (CCRF-CEM [8]) [%] | Max protection (CCRF-CEM [10]) [%] | selectivity ratio [11] | Max protection (CCRF-CEM [12]) [%] | Max protection (CCRF-CEM [13])
1 | O=C(O)C(=O)/C=C(\O)c1cccc(OCc2ccccc2COc2cccc(/C(O)=C/C(=O)C(=O)O)c2)c1 | 39 |  |  |  | > 200 | 97 |  |  |  |  |  |  | 
2 | O=C(O)C(=O)/C=C(\O)c1cccc(C(c2cccc(/C(O)=C/C(=O)C(=O)O)c2)c2ccccc2F)c1 (configuration not stated) | 17 |  |  |  | 81 |  |  |  | 88 |  |  |  | 
3 | O=C(O)C(=O)/C=C(\O)c1cccc(OCc2ccc(COc3cccc(/C(O)=C/C(=O)C(=O)O)c3)cc2)c1 | > 200 | 1.7 | 1.9 |  | > 200 |  | No protection | No therapeutic benefit |  |  |  |  | 
4 | O=C(/C=C(\O)c1cccc(Cc2ccccc2F)c1)C(=O)NCCCCCNC(=O)C(=O)/C=C(\O)c1cccc(Cc2ccccc2F)c1 | > 12 | 4.8 | 0.7 |  | 12 |  | No protection | No therapeutic benefit |  |  |  |  | 
5 | O=C(/C=C(\O)c1cccc(Cc2ccccc2F)c1)C(=O)NCCCCCCNC(=O)C(=O)/C=C(\O)c1cccc(Cc2ccccc2F)c1 | 16 | 32 | 2.7 |  | 124 |  |  |  | 86 |  | 8 |  | 
6 | O=C(O)C(=O)/C=C(\O)c1cccc(OCc2cccc(COc3cccc(/C(O)=C/C(=O)C(=O)O)c3)c2)c1 | > 200 | 7.3 |  |  | > 200 |  | No protection |  |  |  |  |  | 

Second part, led by results:

Row | EC50 (CCRF-CEM [3]) [µM] | IC50 [4] [µM] | IC50 [6] [µM] | IC50 [9] [µM] | SMILES | CC50 (CCRF-CEM [1]) [µM] | Max protection (CCRF-CEM [2]) [%] | Max protection (CCRF-CEM [5]) | Therapeutic index [7] | Max protection (CCRF-CEM [8]) [%] | Max protection (CCRF-CEM [10]) [%] | selectivity ratio [11] | Max protection (CCRF-CEM [12]) [%] | Max protection (CCRF-CEM [13])
7 | > 9 | 5.3 | 0.2 |  | O=C(/C=C(\O)c1cccc(Cc2ccccc2F)c1)C(=O)NCCCNC(=O)C(=O)/C=C(\O)c1cccc(Cc2ccccc2F)c1 | 9 |  | No protection | No therapeutic benefit |  |  |  |  | 
8 | 0.8 |  | 0.3 | 2.5 | O=C(/C=C(\O)c1cccc(Cc2ccccc2F)c1)C(=O)N1CCN(C(=O)C(=O)/C=C(\O)c2cccc(Cc3ccccc3F)c2)CC1 | 11 |  |  |  |  | 100 | 14 |  | 
9 | 0.02 | 2.5 | 0.4 |  | O=C(O)C(=O)/C=C(\O)c1cccc(Cc2ccccc2F)c1 | 62 |  |  |  |  |  | 3110 | 98 | 
10 | > 5 | 5.8 | 0.2 |  | O=C(/C=C(\O)c1cccc(Cc2ccccc2F)c1)C(=O)NCCNC(=O)C(=O)/C=C(\O)c1cccc(Cc2ccccc2F)c1 | 5 |  |  | No therapeutic benefit |  |  |  |  | No protection

— ChEMBL document CHEMBL1148310, “Rational design and synthesis of novel dimeric diketoacid-containing inhibitors of HIV-1 integrase: implication for binding to two metal ions on the active site of integrase” (J Med Chem, 2004)
